Laboratory results from ChEMBL document CHEMBL5325447, “Synthesis and SAR study of novel diimide skeleton compounds with the anti-inflammatory activities in vitro and in vivo” (Bioorg Med Chem, 2023).
Calls of active or inactive are those of the source. The calls are words filed in the database; no cut-off is given here.

Columns and labels:
[1] = tested on: RAW264.7; assay: Antiinflammatory activity against mouse RAW264.7 cells assessed as inhibition of LPS-induced IL-6 production at 10 uM pretreated with compound for 0.5 hrs followed by incubation with LPS for 24 hrs by ELISA; format: functional; conditions: time 24.5 hrs
[2] = Cytotoxicity against mouse RAW264.7 cells assessed as cell viability at 10 uM incubated for 24 hrs by MTT assay relative to control; format: toxicity, cell-based; conditions: read-out: Activity
[3] = tested on: Mus musculus; assay: Antiinflammatory activity against LPS-induced hyperemia C57BL/6J mouse model assessed as decrease in LPS-induced death rate at 20 mg/kg, po administered 1 hr prior to LPS stimulation and measured for 1 week; format: functional, organism-based; conditions: time 1.0 weeks
[4] = tested on: Mus musculus; assay: Antiinflammatory activity against LPS-induced hyperemia C57BL/6J mouse model assessed as decrease in LPS-induced morphological changes in spleen at 20 mg/kg, po administered 1 hr prior to LPS stimulation by Hematoxylin-Eosin staining based analysis; format: functional, organism-based
[5] = tested on: Mus musculus; assay: (§1) Antiinflammatory activity against LPS-induced acute lung injury C57BL/6J mouse model assessed as decrease in neutrophil number in BALF at 20 mg/kg, ig administered every 12 hrs for 3 times and 30 mins later injected with LPS and measured after 5 hrs by Wrigth-Giemsa staining; format: functional, organism-based; conditions: time 41.5 hrs
[6] = tested on: RAW264.7; assay: Antiinflammatory activity against mouse RAW264.7 cells assessed as inhibition of LPS-induced IL-6 production pretreated with compound for 0.5 hrs followed by incubation with LPS for 24 hrs by ELISA; format: functional, cell-based
[7] = tested on: Mus musculus; assay: Antiinflammatory activity against LPS-induced acute lung injury C57BL/6J mouse model assessed as decrease in ratio of lung wet to dry weight at 20 mg/kg, ig administered every 12 hrs for 3 times and 30 mins later injected with LPS and measured after 5 hrs; format: functional, organism-based; conditions: time 41.5 hrs
[8] = tested on: Mus musculus; assay: as §1, with “LPS-induced F4/80 expression” for “neutrophil number”, “lungs” for “BALF”, “immunohistochemical” for “Wrigth-Giemsa”, “staining based analysis” for “staining”; format: functional, organism-based; conditions: time 41.5 hrs
[9] = tested on: RAW264.7; assay: Antiinflammatory activity against mouse RAW264.7 cells assessed as inhibition of LPS-induced TNF-alpha production pretreated with compound for 0.5 hrs followed by incubation with LPS for 24 hrs by ELISA; format: functional, cell-based
[10] = tested on: Mus musculus; assay: Antiinflammatory activity against LPS-induced acute lung injury C57BL/6J mouse model assessed as decrease in LPS-induced IL-6 production in serum at 20 mg/kg, ig administered every 12 hrs for 3 times and 30 mins later injected with LPS and measured after 5 hrs by ELISA; format: functional, organism-based; conditions: time 41.5 hrs
[11] = tested on: Mus musculus; assay: Antiinflammatory activity against LPS-induced acute lung injury C57BL/6J mouse model assessed as decrease in disruption of lung tissue structure and alveolar wall thickening at 20 mg/kg, ig administered every 12 hrs for 3 times and 30 mins later injected with LPS and measured after 5 hrs; format: functional, organism-based; conditions: time 41.5 hrs
[12] = tested on: Mus musculus; assay: Antiinflammatory activity against LPS-induced hyperemia C57BL/6J mouse model assessed as decrease in LPS-induced weight loss at 20 mg/kg, po administered 1 hr prior to LPS stimulation and measured for 1 week; format: functional, organism-based; conditions: time 1.0 weeks
[13] = tested on: Mus musculus; assay: Antiinflammatory activity against LPS-induced acute lung injury C57BL/6J mouse model assessed as decrease in total protein concentration in BALF at 20 mg/kg, ig administered every 12 hrs for 3 times and 30 mins later injected with LPS and measured after 5 hrs; format: functional, organism-based; conditions: time 41.5 hrs
[14] = tested on: Mus musculus; assay: Antiinflammatory activity against LPS-induced acute lung injury C57BL/6J mouse model assessed as decrease in LPS-induced IL-6 production in BALF at 20 mg/kg, ig administered every 12 hrs for 3 times and 30 mins later injected with LPS and measured after 5 hrs by ELISA; format: functional, organism-based; conditions: time 41.5 hrs
[15] = tested on: Mus musculus; assay: Antiinflammatory activity against LPS-induced acute lung injury C57BL/6J mouse model assessed as decrease in LPS-induced TNF-alpha production in serum at 20 mg/kg, ig administered every 12 hrs for 3 times and 30 mins later injected with LPS and measured after 5 hrs by ELISA; format: functional, organism-based; conditions: time 41.5 hrs
[16] = tested on: Mus musculus; assay: Antiinflammatory activity against LPS-induced acute lung injury C57BL/6J mouse model assessed as decrease in LPS-induced TNF-alpha production in BALF at 20 mg/kg, ig administered every 12 hrs for 3 times and 30 mins later injected with LPS and measured after 5 hrs by ELISA; format: functional, organism-based; conditions: time 41.5 hrs

SMILES | inhibition at 10 µM [1] | viability at 24 h, 10 µM [2] | also measured
CC(C)Cc1ccc(C(C)C(=O)NC(=O)c2ccccc2)cc1 (configuration not stated) | 71.1% | 91% | –
O=C(/C=C/c1ccccc1)NC(=O)c1ccc2ccccc2n1 | 83.3% | 93.2% | –
O=C(NC(=O)c1cccs1)c1ccccc1 | 62.3% | 99.3% | –
O=C(CCc1ccccc1)NCc1cccs1 | – | – | inhibition [1]: Active
COc1ccc2cc(C(C)C(=O)NC(=O)c3ccccc3)ccc2c1 (configuration not stated) | 71.2% | 89.7% | –
O=C(/C=C/c1ccccc1)NC(=O)c1ccccc1 | 90.7% | 72.8% | –
O=C(/C=C/c1ccccc1)NC(=O)c1cccs1 | 94.8% | 110% | Activity [3]: Active; Activity [4]: Active; Activity [5]: Active; IC50 [6]: 1.59 µM; inhibition ([6]; time 24.5 hrs): Dose-Dependent Effect; Activity [7]: Active; Activity [8]: Active; IC50 [9]: 15.3 µM; inhibition ([9]; time 24.5 hrs): Dose-Dependent Effect; Activity [10]: Active; Activity [11]: Active; Activity [12]: Active; Activity [13]: Active; Activity [14]: Active; Activity [15]: Active; Activity [16]: Active
O=C(NC(=O)c1cccnc1)c1ccccc1 | 62% | 103% | –
O=C(/C=C/c1ccccc1)NC(=O)c1cc2ccccc2[nH]1 | 32% | 32.4% | –
COc1ccc2cc(C(C)C(=O)NC(=O)/C=C/c3ccccc3)ccc2c1 (configuration not stated) | 79.1% | 78.5% | –
COc1ccc2cc([C@H](C)C(=O)O)ccc2c1 [NAPROXEN] | 52.2% | 112% | –
O=C(NC(=O)c1ccco1)c1ccccc1 | 70.2% | 106% | –
O=C(CCc1ccccc1)NC(=O)c1cccs1 | – | – | inhibition [1]: Active
CC(C)(C)OC(=O)N1CCC(C(=O)NC(=O)/C=C/c2ccccc2)C1 (configuration not stated) | 77.5% | 135% | –
O=C(NCCCc1ccccc1)c1cccs1 | – | – | inhibition [1]: Active
COc1ccc2cc(C(C)C(=O)NC(=O)C(C)c3ccc(CC(C)C)cc3)ccc2c1 (configuration not stated) | 55.7% | 117% | –
O=C(NC(=O)c1cc2ccccc2[nH]1)c1ccccc1 | 77.2% | 90.5% | –
CC(C)Cc1ccc(C(C)C(=O)NC(=O)/C=C/c2ccccc2)cc1 (configuration not stated) | 90.1% | 94.4% | –
O=C(NC(=O)c1ccccc1)c1ccccc1 | 66.7% | 109% | –
O=C(/C=C/c1ccccc1)NC(=O)c1ccco1 | 88.6% | 97.3% | –
C[C@@H]1C[C@H]2[C@@H]3CCC4=CC(=O)C=C[C@]4(C)[C@@]3(F)[C@@H](O)C[C@]2(C)[C@@]1(O)C(=O)CO | – | – | Activity [7]: Active; Activity [8]: Active; Activity [11]: Active
CC(C)Cc1ccc(C(C)C(=O)O)cc1 (configuration not stated) [IBUPROFEN] | 61% | 132% | –
c1ccc(CCCNCc2cccs2)cc1 | – | – | inhibition [1]: Active
O=C(/C=C/c1ccccc1)NCc1cccs1 | – | – | inhibition [1]: Active
O=C(/C=C/c1ccccc1)NC(=O)/C=C/c1ccccc1 | 82.5% | 20.2% | –
CC(C)(C)OC(=O)N1CCC(C(=O)NC(=O)c2ccccc2)C1 (configuration not stated) | 60.6% | 143% | –
O=C(/C=C/c1ccccc1)NC(=O)C1CCNC1 (configuration not stated) | 74% | 130% | –
O=C(NC(=O)c1ccc2ccccc2n1)c1ccccc1 | 74% | 88.2% | –
O=C(NC(=O)C1CCNC1)c1ccccc1 (configuration not stated) | 74% | 115% | –
COc1cc(/C=C/C(=O)CC(=O)/C=C/c2ccc(O)c(OC)c2)ccc1O [CURCUMIN] | 87% | 120% | –
